Columns and labels:
Type in all cases: physicochemical
[1] = 6 month dry powder stability, HPLC assay
From the text: (§1) NUC-3373 prepared according to Example 3 and Comparative Example 4 was packed into a transparent LDPE bag which was then filled with nitrogen and tied with a strip seal. This bag was then placed into another transparent LDPE bag which was also filled with nitrogen. A silica gel packet was placed between the two bags before the outermost bag was tied with a strip seal. These bags were then placed in a triple laminated sun light barrier bag which was sealed with a heat sealer. The bags were kept in a HDPE container.
(§2) NUC-3373 was initially assayed by HPLC after manufacture (0 months) then after 1 and 2 and/or 3 and 6 months of storage at 2-8° C., 25° C. or 40° C.

[2] = 6 month dry powder stability, Alpha Naphthol content by HPLC
From the text: as §1, §2
The Alpha Naphthol content of the same batches was also determined by HPLC. The levels of the alpha naphthol impurity is a key indicator of stability of the tested material.

[3] = Solution stability, alpha naphthol (0.60 RRT) in DMA:Saline (80:20 v/v); design: 0.60 RRT (Alpha Naphthol): unit not given here; settings: 400 mg/mL in DMA:Saline (80:20 v/v)
Experimental: Stability data is also provided in Table 4, which compares the levels of alpha naphthol (0.60 RRT) present in solutions of 400 mg/mL NUC-3373, prepared by Example 3 or 4, above, in DMA:Saline (80:20 v/v) at different temperatures measured over set periods of time. The tested solutions are suitable for infusion and injection and the temperatures and times measured are representative of the environments that solutions suitable for infusion and injection would typically be stored in.
In Table 4 the two values provided for each temperature at each time period, separated by “/”, represent different preparations (samples) of that synthesis.

In the case of `C[C@H](NP(=O)(OC[C@H]1O[C@@H](n2cc(F)c(=O)[nH]c2=O)CC1O)Oc1cccc2ccccc12)C(=O)OCc1ccccc1` (stereo partly drawn) [Example 3, Batch 3, 5-fluoro-2′-deoxyuridine-5′-O-[1-naphthyl (benzoxy-L-alaninyl)] phosphate], the “Decrease after 6 months, HPLC assay” value ([1]; 2-8 ° C.) is reported as “None”, the “HPLC assay (% w/w on anhydrous and solvent free basis)” value ([1]; 2-8 ° C., 0 months) is reported as 100.3 % w/w and the “HPLC assay (% w/w on anhydrous and solvent free basis)” value ([1]; 2-8 ° C., 3 months) is reported as 101.9 % w/w. The “HPLC assay (% w/w on anhydrous and solvent free basis)” value ([1]; 2-8 ° C., 6 months) was 100.5 % w/w, the “Decrease after 6 months, HPLC assay” value ([1]; 25 ° C.) was “None” and the “HPLC assay (% w/w on anhydrous and solvent free basis)” value ([1]; 25 ° C., 0 months) was 100.3 % w/w. For the same compound, the “HPLC assay (% w/w on anhydrous and solvent free basis)” value ([1]; 25 ° C., 3 months) was 101.8 % w/w, the “HPLC assay (% w/w on anhydrous and solvent free basis)” value ([1]; 25 ° C., 6 months) was 101.0 % w/w and the “Decrease after 6 months, HPLC assay” value ([1]; 40 ° C.) was “None”. The “HPLC assay (% w/w on anhydrous and solvent free basis)” value ([1]; 40 ° C., 0 months) was 100.3 % w/w, the “HPLC assay (% w/w on anhydrous and solvent free basis)” value ([1]; 40 ° C., 1 month) was 100.6 % w/w and the “HPLC assay (% w/w on anhydrous and solvent free basis)” value ([1]; 40 ° C., 2 months) was 101.5 % w/w. The “HPLC assay (% w/w on anhydrous and solvent free basis)” value ([1]; 40 ° C., 3 months) was 102.2 % w/w, the “HPLC assay (% w/w on anhydrous and solvent free basis)” value ([1]; 40 ° C., 6 months) was 100.8 % w/w and the “Increase after 6 months, Alpha Naphthol by HPLC” value (shortened to “Increase after 6 months”) ([2]; 2-8 ° C.) was “None”. For the same compound, the “Alpha Naphthol by HPLC (% w/w)” value ([2]; 2-8 ° C., 0 months) was 0.18 % w/w, the “Alpha Naphthol by HPLC (% w/w)” value ([2]; 2-8 ° C., 3 months) was 0.18 % w/w and the “Alpha Naphthol by HPLC (% w/w)” value ([2]; 2-8 ° C., 6 months) was 0.17 % w/w. For the same compound, the “Increase after 6 months” value ([2]; 25 ° C.) was “None”, the “Alpha Naphthol by HPLC (% w/w)” value ([2]; 25 ° C., 0 months) was 0.18 % w/w and the “Alpha Naphthol by HPLC (% w/w)” value ([2]; 25 ° C., 3 months) was 0.18 % w/w. For the same compound, the “Alpha Naphthol by HPLC (% w/w)” value ([2]; 25 ° C., 6 months) was 0.17 % w/w, the “Increase after 6 months” value ([2]; 40 ° C.) was “None” and the “Alpha Naphthol by HPLC (% w/w)” value ([2]; 40 ° C., 0 months) was 0.18 % w/w. For the same compound, the “Alpha Naphthol by HPLC (% w/w)” value ([2]; 40 ° C., 1 month) was 0.17 % w/w, the “Alpha Naphthol by HPLC (% w/w)” value ([2]; 40 ° C., 2 months) was 0.17 % w/w and the “Alpha Naphthol by HPLC (% w/w)” value ([2]; 40 ° C., 3 months) was 0.17 % w/w. For the same compound, the “Alpha Naphthol by HPLC (% w/w)” value ([2]; 40 ° C., 6 months) was 0.15 % w/w.

With `C[C@H](NP(=O)(OC[C@H]1O[C@@H](n2cc(F)c(=O)[nH]c2=O)CC1O)Oc1cccc2ccccc12)C(=O)OCc1ccccc1` (stereo partly drawn) [Example 3, Batch 2, 5-fluoro-2′-deoxyuridine-5′-O-[1-naphthyl (benzoxy-L-alaninyl)] phosphate] the “Decrease after 6 months, HPLC assay” value ([1]; 2-8 ° C.) was “None”, the “HPLC assay (% w/w on anhydrous and solvent free basis)” value ([1]; 2-8 ° C., 0 months) was 100.2 % w/w and the “HPLC assay (% w/w on anhydrous and solvent free basis)” value ([1]; 2-8 ° C., 3 months) was 101.3 % w/w. The “HPLC assay (% w/w on anhydrous and solvent free basis)” value ([1]; 2-8 ° C., 6 months) was 100.4 % w/w, the “Decrease after 6 months, HPLC assay” value ([1]; 25 ° C.) was “None” and the “HPLC assay (% w/w on anhydrous and solvent free basis)” value ([1]; 25 ° C., 0 months) was 100.2 % w/w. The “HPLC assay (% w/w on anhydrous and solvent free basis)” value ([1]; 25 ° C., 3 months) was 101.1 % w/w, the “HPLC assay (% w/w on anhydrous and solvent free basis)” value ([1]; 25 ° C., 6 months) was 100.7 % w/w and the “Decrease after 6 months, HPLC assay” value ([1]; 40 ° C.) was “None”. For the same compound, the “HPLC assay (% w/w on anhydrous and solvent free basis)” value ([1]; 40 ° C., 0 months) was 100.2 % w/w, the “HPLC assay (% w/w on anhydrous and solvent free basis)” value ([1]; 40 ° C., 1 month) was 99.7 % w/w and the “HPLC assay (% w/w on anhydrous and solvent free basis)” value ([1]; 40 ° C., 2 months) was 100.9 % w/w. For the same compound, the “HPLC assay (% w/w on anhydrous and solvent free basis)” value ([1]; 40 ° C., 3 months) was 101.5 % w/w, the “HPLC assay (% w/w on anhydrous and solvent free basis)” value ([1]; 40 ° C., 6 months) was 100.4 % w/w and the “Increase after 6 months” value ([2]; 2-8 ° C.) was “None”. For the same compound, the “Alpha Naphthol by HPLC (% w/w)” value ([2]; 2-8 ° C., 0 months) was 0.44 % w/w, the “Alpha Naphthol by HPLC (% w/w)” value ([2]; 2-8 ° C., 3 months) was 0.46 % w/w and the “Alpha Naphthol by HPLC (% w/w)” value ([2]; 2-8 ° C., 6 months) was 0.43 % w/w. The “Increase after 6 months” value ([2]; 25 ° C.) was “None”, the “Alpha Naphthol by HPLC (% w/w)” value ([2]; 25 ° C., 0 months) was 0.44 % w/w and the “Alpha Naphthol by HPLC (% w/w)” value ([2]; 25 ° C., 3 months) was 0.45 % w/w. For the same compound, the “Alpha Naphthol by HPLC (% w/w)” value ([2]; 25 ° C., 6 months) was 0.42 % w/w, the “Increase after 6 months” value ([2]; 40 ° C.) was “None” and the “Alpha Naphthol by HPLC (% w/w)” value ([2]; 40 ° C., 0 months) was 0.44 % w/w. For the same compound, the “Alpha Naphthol by HPLC (% w/w)” value ([2]; 40 ° C., 1 month) was 0.44 % w/w, the “Alpha Naphthol by HPLC (% w/w)” value ([2]; 40 ° C., 2 months) was 0.42 % w/w and the “Alpha Naphthol by HPLC (% w/w)” value ([2]; 40 ° C., 3 months) was 0.42 % w/w. For the same compound, the “Alpha Naphthol by HPLC (% w/w)” value ([2]; 40 ° C., 6 months) was 0.38 % w/w, the “0.60 RRT (Alpha Naphthol)” value ([3]; After 1 month at 2-8° C., first preparation (before "/")) was 0.02/0.02 and the “0.60 RRT (Alpha Naphthol)” value ([3]; After 1 month at 2-8° C., second preparation (after "/")) was 0.02/0.02. The “0.60 RRT (Alpha Naphthol)” value ([3]; After 1 month at 25 ± 5° C., first preparation (before "/")) was 0.04/0.04, the “0.60 RRT (Alpha Naphthol)” value ([3]; After 1 month at 25 ± 5° C., second preparation (after "/")) was 0.04/0.04 and the “0.60 RRT (Alpha Naphthol)” value ([3]; After 3 months at 2-8° C., first preparation (before "/")) was 0.02/0.02. The “0.60 RRT (Alpha Naphthol)” value ([3]; After 3 months at 2-8° C., second preparation (after "/")) was 0.02/0.02, the “0.60 RRT (Alpha Naphthol)” value ([3]; After 3 months at 25 ± 5° C., first preparation (before "/")) was 0.11/0.11 and the “0.60 RRT (Alpha Naphthol)” value ([3]; After 3 months at 25 ± 5° C., second preparation (after "/")) was 0.11/0.11. For the same compound, the “0.60 RRT (Alpha Naphthol)” value ([3]; After 6 months at 2-8° C., first preparation (before "/")) was 0.03, the “0.60 RRT (Alpha Naphthol)” value ([3]; After 6 months at 2-8° C., second preparation (after "/")) was 0.02 and the “0.60 RRT (Alpha Naphthol)” value ([3]; After 6 months at 25 ± 5° C., first preparation (before "/")) was 0.34. For the same compound, the “0.60 RRT (Alpha Naphthol)” value ([3]; After 6 months at 25 ± 5° C., second preparation (after "/")) was 0.35, the “0.60 RRT (Alpha Naphthol)” value ([3]; After 9 months at 2-8° C., first preparation (before "/")) was 0.03/0.03 and the “0.60 RRT (Alpha Naphthol)” value ([3]; After 9 months at 2-8° C., second preparation (after "/")) was 0.03/0.03. For the same compound, the “0.60 RRT (Alpha Naphthol)” value ([3]; After 9 months at 25 ± 5° C., first preparation (before "/")) was 0.89/0.89, the “0.60 RRT (Alpha Naphthol)” value ([3]; After 9 months at 25 ± 5° C., second preparation (after "/")) was 0.89/0.89 and the “0.60 RRT (Alpha Naphthol)” value ([3]; After 12 months at 2-8° C., first preparation (before "/")) was 0.04/0.04. For the same compound, the “0.60 RRT (Alpha Naphthol)” value ([3]; After 12 months at 2-8° C., second preparation (after "/")) was 0.04/0.04, the “0.60 RRT (Alpha Naphthol)” value ([3]; After 12 months at 25 ± 5° C., first preparation (before "/")) was 1.60/1.60 and the “0.60 RRT (Alpha Naphthol)” value ([3]; After 12 months at 25 ± 5° C., second preparation (after "/")) was 1.60/1.60. For the same compound, the “0.60 RRT (Alpha Naphthol)” value ([3]; After 15 days at 2-8° C., first preparation (before "/")) was 0.01/0.01, the “0.60 RRT (Alpha Naphthol)” value ([3]; After 15 days at 2-8° C., second preparation (after "/")) was 0.01/0.01 and the “0.60 RRT (Alpha Naphthol)” value ([3]; After 15 days at 25 ± 5° C., first preparation (before "/")) was 0.03. The “0.60 RRT (Alpha Naphthol)” value ([3]; After 15 days at 25 ± 5° C., second preparation (after "/")) was 0.02 and the “0.60 RRT (Alpha Naphthol)” value ([3]; Initial) was 0.01.
